The test system of this experiment is ob/ob mice. The experiment in a line: Effect of pharmacologic PDE9 inhibition on body weight, food intake and plasma metabolites in ob/ob mice. Conditions: female ob/ob mice. The class given is in vivo, mouse. The method, then:
On Day 1, plasma glucose was determined via retro-orbital blood samples. 25 μL of blood was added to 100 μL of 0.025 percent heparinized-saline in microtubes (Denville Scientific, Inc., Metuchen, N.J.). The tubes were spun at the highest setting in a Beckman Microfuge 12 for 2 minutes. Plasma was collected for plasma glucose and triglyceride determination, as further described below. During the course of the study, body weight and food consumption were assessed, and blood samples were taken at approximately 8 am for plasma glucose and triglyceride measures, as further described below.
Plasma glucose, triglycerides, and fructosamine were measured using the Roche/Hitachi 912 Clinical Chemistry Analyzer (Roche Diagnostics Corp., Indianapolis, Ind.). Plasma cGMP was measured using the BioTrak™ enzyme-immunoassay system (Amersham, Piscataway, N.J.). Plasma insulin was assessed via a similar technique using the Mercodia ELISA Insulin kit supplied by ALPCO (Uppsala, Sweden). All assays were conducted according to each manufacturer's instructions.
Female ob/ob mice obtained from Jackson Laboratories (Bar Harbor, Me.) were used at 6 to 10 weeks of age. Mice were housed five per cage and allowed free access to water and, initially, to D11 mouse chow. Following a one week acclimation period, mice were switched to a powdered diet (Mouse Breeder/Auto-JL K20 mouse chow, PMI Feeds, Inc., St. Louis, Mo.) for three days and allowed to adapt to the diet prior to the start of the PDE9 inhibitor dosing period.
The PDE9 inhibitor compound (Compound A) was administered in powdered mouse chow that was custom ground (Research Diets, Inc., New Brunswick, N.J.) as a compound/chow admixture; compounds were mixed with the chow to achieve consumption of the specified doses ranging from 1-200 mg/kg/day. In addition to a compound-free control group, a group consuming darglitazone (1 mg/kg/day) was also included as a positive control.
Mice were randomly assigned to groups of ten with five mice per cage. Body weight was determined on Day 0 and weekly thereafter. On Day 1, retro-orbital blood samples were obtained and plasma glucose was determined as previously described. On the final day of the study, blood samples were taken for glucose, triglyceride, insulin, and cGMP measurements, as previously described.

Consider `CC(C)c1n[nH]c2c(=O)[nH]c(Cc3ccccc3OCCN3CCOCC3)nc12` [Compound A, 3-isopropyl-5-[2-(2-morpholin-4-yl-ethoxy)-benzyl]-1,6-dihydro-pyrazolo[4,3-d]pyrimidin-7-one], for which, where the note is “100 mg/kg/day (FIG. 10)”, the plasma glucose result is “decreased”. Besides, the plasma triglycerides result (100 mg/kg/day (FIG. 11)) is given as “decreased”. In addition, where the note is “100 mg/kg/day in chow, compared to compound-free control diet or darglitazone-treated diet (FIG. 7)”, the body weight gain result is “reduced body weight gain”. Further, where the note is “100 mg/kg/day, Day 16 (FIG. 12)”, the plasma fructosamine entry is recorded as “decreased”. Besides, the food intake result (100 mg/kg/day, later stages of the study (FIG. 9)) is “no effect on food intake”. In addition, the “reducing the normal body weight gain (dose effect)” value (following 2 and 4 days of treatment (FIG. 8A)) is reported as “dose-dependent effect”. In addition, the “reducing food intake (dose effect)” value (following 2 and 4 days of treatment (FIG. 8B)) is reported as “dose-dependent effect”.

The values are drawn from patent publication US20080282364A1, “Phosphodiesterase 9 Inhibition as Treatment for Obesity-Related Conditions” (priority 2003, published 2008).
